What all share (test): biochemical
Assay [1] concerns the target T1, ZmDRIK1-R187-P492 (Zea mays, UniProt C0P4K9).
T1 construct: kinase domain, R187-P492
T1 sequence (C0P4K9 1-514): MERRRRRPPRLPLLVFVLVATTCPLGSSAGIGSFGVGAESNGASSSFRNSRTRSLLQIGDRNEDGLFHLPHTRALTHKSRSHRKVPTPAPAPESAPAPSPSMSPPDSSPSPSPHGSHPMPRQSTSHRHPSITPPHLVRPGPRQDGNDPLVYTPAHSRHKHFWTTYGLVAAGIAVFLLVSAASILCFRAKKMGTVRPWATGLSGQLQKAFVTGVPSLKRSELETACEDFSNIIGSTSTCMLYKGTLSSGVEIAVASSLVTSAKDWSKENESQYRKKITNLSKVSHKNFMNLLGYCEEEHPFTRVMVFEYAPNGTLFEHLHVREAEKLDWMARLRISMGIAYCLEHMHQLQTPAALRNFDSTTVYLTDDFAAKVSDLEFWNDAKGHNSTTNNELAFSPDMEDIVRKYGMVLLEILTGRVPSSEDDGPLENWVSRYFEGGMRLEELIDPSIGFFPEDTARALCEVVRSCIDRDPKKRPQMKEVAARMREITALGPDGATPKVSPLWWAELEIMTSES
The conditions noted are these: read-out: dTm B, DSF, Boltzmann fit, 0.1% DMSO.

For assay [2], the target named is T2, ZmDRIK1-K217-S514 (Zea mays, UniProt C0P4K9).
T2 construct: kinase domain, K217-S514
T2 sequence (C0P4K9 1-514): T1 sequence (C0P4K9 1-514)
The conditions noted are these: read-out: dTm B, sheet ZmDRIK1-K217-S514;; DSF, Boltzmann fit, 0.1% DMSO.

In assay [3] the target is T3, ZmDRIK1 (DROUGHT RESPONSIVE INACTIVE KINASE 1), kinase domain (Zea mays, UniProt C0P4K9).
T3 construct: gene ZEAMMB73_Zm00001d028770; ZmDRIK1-KD R187-S514 (kinase domain)
T3 sequence (C0P4K9 187-514): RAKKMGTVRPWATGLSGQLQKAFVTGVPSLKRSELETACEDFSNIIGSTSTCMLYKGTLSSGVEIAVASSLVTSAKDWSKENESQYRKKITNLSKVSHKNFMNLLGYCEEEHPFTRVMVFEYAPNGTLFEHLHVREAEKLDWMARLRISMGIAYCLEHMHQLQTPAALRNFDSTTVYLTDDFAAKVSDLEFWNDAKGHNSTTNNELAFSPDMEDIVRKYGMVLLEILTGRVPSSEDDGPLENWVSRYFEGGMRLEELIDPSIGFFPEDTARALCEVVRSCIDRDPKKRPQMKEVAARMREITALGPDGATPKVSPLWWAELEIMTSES
The conditions noted are these: read-out: dTm B, sheet ZmDRIK1-R187-S514;; DSF, Boltzmann fit, 0.1% DMSO.

The target in assay [4] is T4, ZmDRIK1-K217-P492 (Zea mays, UniProt C0P4K9).
T4 construct: kinase domain, K217-P492
T4 sequence (C0P4K9 1-514): T1 sequence (C0P4K9 1-514)
The conditions noted are these: read-out: dTm B, sheet ZmDRIK1-K217-P492;; DSF, Boltzmann fit, 0.1% DMSO.

The structures appear in SMILES notation.

In the case of `Clc1ccc(C2(c3ccc(-c4cn[nH]c4)cc3)CCNCC2)cc1` [AT7867], the ΔTm at 10 µM in assay [1] is -0.25 °C; in assay [2] it was 0.339 °C; in assay [3] it was -0.971 °C; in assay [4] it was -0.759 °C.

In the case of `C[C@@H]1COC(Nc2ccc3ncnc(Nc4ccc(OCc5nccs5)c(Cl)c4)c3c2)=N1` [Varlitinib], the ΔTm at 10 µM in assay [1] was -0.314 °C; in assay [2] it was -0.516 °C; in assay [3] it was -0.97 °C; in assay [4], -0.993 °C.

Regarding `C1=N/C2=N/c3ccc(OCCN4CCCC4)c(c3)COC/C=C/COCc3cccc(c3)C(=C1)N2` [Pacritinib (SB1518)], the ΔTm at 10 µM is -0.0853 °C in assay [1], 0.03 °C in assay [2], 0.0273 °C in assay [3] and 1.04 °C in assay [4].

For the compound `CN1CCN(C2CCN(C(=O)Nc3cc(Oc4ccc(NC(=O)C5(C(=O)Nc6ccc(F)cc6)CC5)c(F)c4)ccn3)CC2)CC1` [Golvatinib (E7050)], the ΔTm at 10 µM in assay [1] is -0.232 °C; in assay [2], -0.278 °C; in assay [3], -0.382 °C; in assay [4], -0.473 °C.

For `CCN(CC)CCCCNc1ncc2cc(-c3cc(OC)cc(OC)c3)c(NC(=O)NC(C)(C)C)nc2n1` [PD173074], the ΔTm at 10 µM was -0.212 °C in assay [1], -0.228 °C in assay [2], -0.711 °C in assay [3] and -0.962 °C in assay [4].

Regarding `O=C1NC(=O)C(=Cc2ccc(-c3ccc(F)cc3)o2)S1` (stereo in doubt) [CAY10505], the ΔTm at 10 µM in assay [1] is -0.47 °C; in assay [2] it was -0.62 °C; in assay [3], -0.534 °C; in assay [4], -0.834 °C.

Take `Cc1cc(Nc2nc(N[C@@H](C)c3ccc(F)cc3)c(C#N)cc2F)n[nH]1` [AZ 960]: the ΔTm at 10 µM in assay [1] was -0.311 °C; in assay [2], -0.27 °C; in assay [3], -0.939 °C; in assay [4], -0.533 °C.

On to `Cn1cc(-c2[nH]c3cc(NC(=O)[C@H](N)C4CCCCC4)cc4c3c2C=NNC4=O)cn1` [PF-477736], for which the ΔTm at 10 µM was -0.228 °C in assay [1], -0.328 °C in assay [2], -0.63 °C in assay [3] and -1.09 °C in assay [4].

For the compound `CNC(=O)CN1CCC(Oc2cc3c(Nc4cccc(Cl)c4F)ncnc3cc2OC)CC1` [AZD8931 (Sapitinib)], the ΔTm at 10 µM was -0.238 °C in assay [1], -0.326 °C in assay [2], -1.22 °C in assay [3] and -1.14 °C in assay [4].

In the case of `CS(=O)(=O)N1CCN(Cc2cc3nc(-c4cccc5[nH]ncc45)nc(N4CCOCC4)c3s2)CC1` [GDC-0941], the ΔTm at 10 µM in assay [1] was -0.181 °C; in assay [2], -0.203 °C; in assay [3], -0.702 °C; in assay [4], -0.665 °C.

`COc1cc2nccc(Oc3ccc(NC(=O)NC4CC4)c(Cl)c3)c2cc1C(N)=O` [Lenvatinib (E7080)]: the ΔTm at 10 µM in assay [1] was -0.406 °C; in assay [2], -0.299 °C; in assay [3] it was -1.04 °C; in assay [4], -1.02 °C.

With `O=C(NCCO)c1cccc(-c2cc(Nc3ccc(OC(F)(F)F)cc3)ncn2)c1` [GNF-5], the ΔTm at 10 µM in assay [1] was 1.16 °C; in assay [2], 0.543 °C; in assay [3], -0.0553 °C; in assay [4], -0.507 °C.

For the compound `Cn1cc(-c2ccc3ncc(Cc4ccc5ncccc5c4)n3n2)cn1` [NVP-BVU972], the ΔTm at 10 µM in assay [1] is -0.283 °C; in assay [2] it was -0.37 °C; in assay [3], -0.84 °C; in assay [4], -0.593 °C.

As to `O=C(NCc1ccccc1)c1csc(Nc2ccncn2)n1` [Thiazovivin], the ΔTm at 10 µM in assay [1] was -0.171 °C; in assay [2], -0.368 °C; in assay [3], -0.845 °C; in assay [4], -0.879 °C.

On to `CS(=O)(=O)c1cccc(CNc2nc(Nc3ccc4c(c3)CCC(=O)N4)ncc2C(F)(F)F)c1` [PF-573228], for which the ΔTm at 10 µM in assay [1] was 0.148 °C; in assay [2], 0.0316 °C; in assay [3], -0.638 °C; in assay [4], -1.45 °C.

Regarding `COc1ccc(S(=O)(=O)N(C(C)=O)c2ccccc2/C=C/c2cc[n+]([O-])cc2)cc1` [HMN-214], the ΔTm at 10 µM is -0.238 °C in assay [1], -0.242 °C in assay [2], -0.877 °C in assay [3] and -0.694 °C in assay [4].

For `NC(=O)c1ncn([C@@H]2O[C@H](CO)[C@@H](O)[C@H]2O)c1N` [Acadesine], the ΔTm at 10 µM was -0.0339 °C in assay [1], -0.387 °C in assay [2], -0.564 °C in assay [3] and -0.691 °C in assay [4].

As to `O=c1cc(N2CCOCC2)oc2c(-c3ccccc3)cccc12` [LY294002], the ΔTm at 10 µM is -0.0828 °C in assay [1], -0.184 °C in assay [2], -0.881 °C in assay [3] and -0.874 °C in assay [4].

For the compound `COc1cc2nccc(Oc3ccc(NC(=O)Nc4cc(C)on4)c(Cl)c3)c2cc1OC` [Tivozanib (AV-951)], the ΔTm at 10 µM is -3.15 °C in assay [1], -0.402 °C in assay [2], -0.0903 °C in assay [3] and -3.26 °C in assay [4].

`O=c1cc(CN2CCOCC2)occ1OCCCCCSc1ccnc2cc(C(F)(F)F)ccc12` [EHT 1864]: the ΔTm at 10 µM in assay [1] is -0.298 °C; in assay [2], -0.387 °C; in assay [3] it was -0.648 °C; in assay [4] it was -0.4 °C.

For the compound `N#Cc1c(NC(=O)c2cccc3ccccc23)sc2c1CCCC2` [JNK Inhibitor IX], the ΔTm at 10 µM in assay [1] was -0.365 °C; in assay [2], -0.601 °C; in assay [3], -1.05 °C; in assay [4], -1.09 °C.

As to `CO[C@@H](C(=O)N1Cc2[nH]nc(NC(=O)c3ccc(N4CCN(C)CC4)cc3)c2C1)c1ccccc1` [Danusertib (PHA-739358)], the ΔTm at 10 µM in assay [1] is -0.184 °C; in assay [2] it was -0.209 °C; in assay [3], -0.644 °C; in assay [4], -0.905 °C.

Consider `CCOc1cc(N2CCC(O)CC2)ccc1Nc1ncc2c(n1)N(C)c1ccccc1C(=O)N2C` [XMD8-92], for which the ΔTm at 10 µM in assay [1] was -0.38 °C; in assay [2], -0.663 °C; in assay [3] it was -0.666 °C; in assay [4] it was -1.16 °C.

For `Cc1c(NC(=O)OC[C@@H]2COCCN2)cn2ncnc(Nc3ccc4c(cnn4Cc4cccc(F)c4)c3)c12` [AC480 (BMS-599626)], the ΔTm at 10 µM in assay [1] was -0.278 °C; in assay [2] it was -0.265 °C; in assay [3], -0.997 °C; in assay [4] it was -0.766 °C.

Turning to `COc1ccc2c(Oc3ccc(NC(=O)c4c(C)n(CC(C)(C)O)n(-c5ccccc5)c4=O)nc3)ccnc2c1` [AMG-458], the ΔTm at 10 µM in assay [1] was -0.312 °C; in assay [2], -0.329 °C; in assay [3], -0.675 °C; in assay [4], -0.94 °C.

With `COc1cc2ncnc(Nc3ccc(F)c(Cl)c3)c2cc1NC(=O)/C=C/CN1CCCCC1` [Dacomitinib (PF299804)], the ΔTm at 10 µM in assay [1] is -0.258 °C; in assay [2] it was -0.1 °C; in assay [3] it was -0.735 °C; in assay [4], -0.0919 °C.

For the compound `CC(=O)Nc1nc(C)c(-c2ccc(Cl)c(S(=O)(=O)NCCO)c2)s1` [PIK-93], the ΔTm at 10 µM in assay [1] is -0.0815 °C; in assay [2], -0.175 °C; in assay [3], -1.08 °C; in assay [4] it was -0.556 °C.

On to `CS(=O)(=O)c1ccc(-c2cnc(N)c(C(=O)Nc3ccccc3)n2)cc1` [VE-821], for which the ΔTm at 10 µM in assay [1] was -0.26 °C; in assay [2] it was -0.669 °C; in assay [3], -0.715 °C; in assay [4], -0.928 °C.

As for `Cc1ccc2nc(NCCN)c3ncc(C)n3c2c1` [BMS-345541], the ΔTm at 10 µM is -0.153 °C in assay [1], -0.486 °C in assay [2], -0.926 °C in assay [3] and -0.0998 °C in assay [4].

As to `Cc1ccc(F)c(NC(=O)Nc2ccc(-c3cccc4[nH]nc(N)c34)cc2)c1` [Linifanib (ABT-869)], the ΔTm at 10 µM in assay [1] is -0.414 °C; in assay [2], -0.66 °C; in assay [3], -0.711 °C; in assay [4], -4.15 °C.

The record behind these values is article PMC7158045 (BMC Plant Biology, 2020).
